# Data: patent publication US20010049128A1, “PROCESS FOR THE FERMENTATIVE PRODUCTION OF L-AMINO ACIDS” (priority 1998, published 2001)
# Like-named read-outs stand apart in the source and are kept apart here.
# Key:
# [1] = test system: Brevibacterium flavum DSM5399; settings: 72 hours at 30° C., 300 rpm
# Description: A culture medium containing 100 g/l saccharose, 12 g/l (NH4)2SO4, 100 ml/l soya flour hydrolysate, 0.5 g/l K2HPO4, 0.5 g/l KH2PO4, 0.25 g/l MgSO4.7H2O, 5.0 g/l NaCl and 1 ml of a solution of trace salts was adjusted to pH 7.0 and autoclaved. The solution of trace salts consisted of 1.0 g FeSO4.7H2O, 1.0 g MnSO4.H2O, 0.1 g ZnSO4.7H2O, 0.02 g CuSO4 and 0.002 g NiCl2.6H2O, which was made up to 100 ml with demineralised water and a few drops of a 1N HCl solution.
# 1 ml each of a 0.2 mg/l biotin and thiamine stock solution, which had been sterilised by filtration, were added to the culture medium. 10.0 g/l CaCO3 was sterilised together with the shaking flasks. In the culture medium, the proline concentration resulting from the introduction of soya flour hydrolysate was 0.34 g/l. The specified concentration of proline, obtained from a proline stock solution, was added to the medium after having been sterilised by filtration.
# An agar plate with brain-heart agar as nutrient medium, which had been incubated for 72 hours with DSM5399, was suspended in 10 ml of sterile physiological saline. 10 ml portions of cultivation medium were placed in 100 ml Erlenmeyer shaking flasks and inoculated with 100 μl of the withdrawn cell suspension. The cultivation took place over 72 hours at 30° C. and 300 rpm. Subsequent to this, as specified in Example 1, the OD was determined at a wavelength of 660 nm and the threonine concentration was measured.
# [2] = test system: Brevibacterium flavum DSM5399; settings: Proline 0.1 g/l; 72 hours at 30° C., 300 rpm
# Description: The solution of trace salts consisted of 1.0 g FeSO4.7H2O, 1.0 g MnSO4.H2O, 0.1 g ZnSO4.7H2O, 0.02 g CuSO4 and 0.002 g NiCl2.6H2O, which was made up to 100 ml with demineralised water and a few drops of a 1N HCl solution.
# 1 ml each of a 0.2 mg/l biotin and thiamine stock solution, which had been sterilised by filtration, were added to the culture medium. 10.0 g/l CaCO3 was sterilised together with the shaking flasks.
# 10 ml portions of cultivation medium were placed in 100 ml Erlenmeyer shaking flasks and inoculated with 100 μl of the withdrawn cell suspension. The cultivation took place over 72 hours at 30° C. and 300 rpm.
# [3] = test system: Corynebacterium glutamicum DSM5715; settings: Proline 0.5 g/l; 72 hours at 33° C., 150 rpm; NaCl 5 g/l
# Description: A culture medium containing 2.5 g/l NaCl, 10 g/l peptone and 10 g/l yeast extract was adjusted to pH 7.4 with sodium hydroxide and, after heat sterilisation, 40 ml of 50% glucose solution per liter was added thereto. 47 ml portions of the medium were inoculated with Corynebacterium glutamicum DSM5715 with a needle on an agar plate with brain-heart agar as nutrient medium incubated for 48 hours and were shaken at 150 rpm for 20 hours at 33° C. in an RC-1-TK incubator from the firm Infors AG (Bottmingen, Switzerland). The cells were then washed with sterile physiological saline. The cells were separated by centrifugation for 20 minutes at 4000 rpm in a Beckmann centrifuge J 6B.
# For the main cultivation in shaking flasks, 40 g (NH4)2SO4, 0.5 g KH2PO4, 0.5 g K2HPO4, 0.25 g MgSO4.7H2O and 0.3 g L-leucine were weighed in a 1 l beaker and 750 ml distilled water was added thereto. […]
# The cultivation took place over 72 hours at 33° C. and 150 rpm in an RC-1-TK incubator from the firm Infors AG (Bottmingen, Switzerland). Subsequent to this, the optical density (OD) (photometer LP2W from the firm Dr. Lange, Berlin, Germany) and the concentration of L-amino acid formed in the culture suspension were determined. Amino acids were analysed by ion-exchange chromatography and post-column reaction with ninhydrin detection, using an amino acid analyser from the firm Eppendorf BioTronik (Hamburg, Germany).
# [4] = test system: cells in media with inhibiting osmotic stress; settings: cited from earlier work
# [5] = Proline 0.34 g/l (resulting from soya flour hydrolysate, none added)
SMILES,"OD 660 nm [1, 5]","Threonine [1, 5]",OD 660 nm ([1]; Proline 0.66 g/l),Threonine ([1]; Proline 0.66 g/l),L-isoleucine [2],OD 660 nm [2],Lysine [3],OD 535 nm [3],growth rate of the cells [4],production of L-lysine [4]
"O=C(O)[C@@H]1CCCN1 [Proline, L-proline]",51.2,0.63 g/L,52.6,1.29 g/L,0.36 g/L,52.0,29.4 g/L,30.5,,
C[N+](C)(C)CC(=O)[O-] [glycine betaine],,,,,,,,,stimulates the growth rate,increase in the production of L-lysine
